Patent US20220168427A1 (Ranok Therapeutics (Hangzhou) Co. Ltd., priority 2019, published 2022)

What was measured:
BRD4 = molecular target: T1, BRD4 (Homo sapiens, UniProt O60885); assay: BRD4 Degradation Flow Cytometry Assay in MV4-11 cells; type: cell-based; conditions: 24 hr
T1 construct: endogenous in cells; host or cells: MV4-11
Experimental: Protein Degradation Flow Cytometry
MV4-11 cells were plated in a 24-well tissue culture plate at a density of 350,000 cells/450 μL/well and incubated in 37° C./5% CO2 for 1 hr. Cells were then treated with compounds at various concentrations and incubated in 37° C./5% CO2 for 24 hr. Cells were harvested, washed once, counted and 200 μL of 1% paraformaldehyde/PBS was added and incubated for 15 min at room temperature. 200 μL of 1×PBS/0.4% Triton X-100 was added and incubated for 15 min at 4° C. Cells were washed three times and resuspended in 50 μL of 1×PBS/0.2% Triton X-100. 2 μL/10^6 cells of anti-BRD4 antibody (ABCAM, #128874) was added and mixed by pipetting up and down. Cells were incubated for 30 min at room temperature in the dark, washed three times and resuspended in 50 μL of 1×PBS/0.2% Triton X-100. Goat anti-rabbit IgG H&L antibody (1:2000 dilution) was added and mixed by pipetting up and down and incubated for 30 min at room temperature in the dark. Finally, cells were washed three times and resuspended in 200 μL of PBS for flow cytometric analysis.
% Inhibition=100−(D−B)/(S−B)*100%.
S: The fluorescence intensity of MV4-11 with antibody
D: The fluorescence intensity in the presence of different compound dilutions with antibody
B: The fluorescence intensity of MV4-11 only

MV4-11 xenograft = assay: MV4-11 AML tumor xenograft study in mice
Experimental: Tumor Xenograft Studies in Mice
MV4-11 acute myeloid leukemia and SU-DHL-4 diffuse large B-cell lymphoma (ATCC, #CRL-2957) cells were cultured in medium supplemented with 10% fetal bovine serum at 37° C./5% CO2. 5×10^6 MV-4-11 or 1×10^7 SU-DHL-4 cells were collected and re-suspended in 0.1 mL of serum-free media with Matrigel (1:1 v/v) per mouse for subcutaneous inoculation in isoflurane anesthetized male BALB/c nude or C.B-17 scid mice, respectively (treated in accordance with AAALAC animal welfare guidelines). When the average tumor volumes reached 100-200 mm^3, tumor volume outliers were removed and the remaining animals randomly divided into groups of 6-8 with similar average tumor volumes in each group. […] […] The appearance and behavior of each mouse was observed and recorded daily. Body weights and tumor volumes were measured and recorded every 2-4 days and the results were expressed as group means±SEM. Pairwise statistical comparisons between groups were performed by one-way ANOVA, and p<0.05 was considered statistically significant.

## (+)-JQ1 [reference compound]
BRD4
  BRD4 degradation in flow cytometry assay, in words: no substantial BRD4 degradation was observed
MV4-11 xenograft; 25 mg/kg intraperitoneal dosing 1×/day
  tumor growth inhibition: moderate tumor growth inhibition
MV4-11 xenograft; any group
  animal deaths and body weights: No animal deaths or significant effects on body weights were observed
